Measured values taken from patent publication US8901168B2 (priority 2007, dated 2014).

Columns and labels:
splenocytes = system: splenocytes; set-up: species or system BALB/c mice; settings: mouse, in vivo
[1] = mice; for total vitamin E accumulation in adipose tissues: compared to unsupplemented control mice; for δ-T3 concentration in adipose tissue: compared to the rest of the groups
IFN-γ = system: IFN-γ; set-up: species or system BALB/c mice; settings: mouse, in vivo
[2] = 1 mg oral gavage daily for 56 days

Row | Compound | splenocyte proliferative response to Con A (splenocytes) | splenocyte proliferative response to TT (splenocytes) | total vitamin E accumulation in adipose tissues [1, 2] | α-T (tocopherol) concentration in adipose tissue ([1]; 56 days, compared to the rest of the animal groups) | γ-T3 concentration in adipose tissue ([1]; 56 days, compared to the rest of the animals) | δ-T3 concentration in adipose tissue ([1]; 56 days) | splenocyte proliferation, comparison between vitamin E treated groups (splenocytes) | IFN-γ production following Con A stimulation compared to α-T treated mice (IFN-γ) | total vitamin E levels in adipose tissues, ranking of groups ([1]; 1 mg oral gavage daily for 56 days, between supplemented groups)
1 | Cc1c(C)c2c(c(C)c1O)CC[C@@](C)(CCC[C@H](C)CCC[C@H](C)CCCC(C)C)O2 [α-T, α-tocopherol] | significantly (P<0.05) greater proliferative response | significantly (P<0.05) greater proliferative response | significant (P<0.05) levels of total vitamin E accumulation | significantly (P<0.05) high concentrations of tocopherol | did not have any detectable amounts | did not have any detectable amounts |  |  | 
2 | CC(C)=CCC/C(C)=C/CC/C(C)=C/CC[C@]1(C)CCc2cc(O)cc(C)c2O1 [δ-T3, δ-tocotrienol] | significantly (P<0.05) greater proliferative response | significantly (P<0.05) greater proliferative response | significant (P<0.05) levels of total vitamin E accumulation |  |  | highest in the δ-T3 fed animals and the levels were highly significant (P<0.01) | slightly increased | significant (P<0.05) increase | highest
